Test results from publication doi:10.1101/2024.12.15.628575v1 (biorxiv, 2024).
Like-named read-outs stand apart in the source and are kept apart here.

Key:
human CPT1a [1] = target: T1, human CPT1a (Homo sapiens, UniProt P50416); assay: DTNB colorimetric CoA release assay, […] nm, transfected Expi293 pellet extract; format: biochemical
T1 sequence (P50416 2-773): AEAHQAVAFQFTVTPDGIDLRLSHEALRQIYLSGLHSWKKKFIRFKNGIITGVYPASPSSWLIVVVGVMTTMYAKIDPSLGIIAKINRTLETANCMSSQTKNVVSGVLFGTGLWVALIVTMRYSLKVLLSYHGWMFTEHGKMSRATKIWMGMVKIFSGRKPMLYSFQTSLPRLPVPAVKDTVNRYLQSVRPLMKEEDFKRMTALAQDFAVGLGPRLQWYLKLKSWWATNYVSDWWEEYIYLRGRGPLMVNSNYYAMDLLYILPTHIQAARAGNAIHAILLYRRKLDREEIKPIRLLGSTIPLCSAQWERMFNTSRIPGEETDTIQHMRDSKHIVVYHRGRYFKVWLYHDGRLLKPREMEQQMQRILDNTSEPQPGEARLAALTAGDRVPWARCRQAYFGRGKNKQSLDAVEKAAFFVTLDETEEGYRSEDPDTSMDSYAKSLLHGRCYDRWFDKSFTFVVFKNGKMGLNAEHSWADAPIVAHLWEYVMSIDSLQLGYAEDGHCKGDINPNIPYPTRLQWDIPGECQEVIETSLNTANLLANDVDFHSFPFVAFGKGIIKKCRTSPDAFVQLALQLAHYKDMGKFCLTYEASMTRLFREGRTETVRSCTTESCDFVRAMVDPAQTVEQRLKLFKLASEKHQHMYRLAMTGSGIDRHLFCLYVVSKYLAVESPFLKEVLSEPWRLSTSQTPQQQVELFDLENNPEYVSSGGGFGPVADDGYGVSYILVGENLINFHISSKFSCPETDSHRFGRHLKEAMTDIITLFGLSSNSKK

human CPT1a [2] = target: T1, human CPT1a; assay: as above; format: cell-based

`CN(C)CCCN1c2ccccc2Sc2ccc(Cl)cc21` [chlorpromazine] showed an IC50 (human CPT1a [1]) of 179 µM.

Compound `O=C(O)[C@@]1(CCCCCCOc2ccc(Cl)cc2)CO1` [etomoxir] has an IC50 (human CPT1a [1]) of 4710 µM.

With `C1CCC(C(CC2CCCCN2)C2CCCCC2)CC1` (stereo not drawn) [perhexiline] the IC50 (human CPT1a [2]) was 319 µM.
